Measured values reported in ChEMBL document CHEMBL1139694, “N,N'-Diarylcyanoguanidines as antagonists of the CXCR2 and CXCR1 chemokine receptors” (Bioorg Med Chem Lett, 2006).

How the values were obtained:
[1] = target: T1, C-X-C chemokine receptor type 2 (Homo sapiens, UniProt P25025); experiment: Displacement of [125I]IL8 from CXCR2 expressed in CHO cells; type: cell-based
T1 sequence (P25025 whole entry): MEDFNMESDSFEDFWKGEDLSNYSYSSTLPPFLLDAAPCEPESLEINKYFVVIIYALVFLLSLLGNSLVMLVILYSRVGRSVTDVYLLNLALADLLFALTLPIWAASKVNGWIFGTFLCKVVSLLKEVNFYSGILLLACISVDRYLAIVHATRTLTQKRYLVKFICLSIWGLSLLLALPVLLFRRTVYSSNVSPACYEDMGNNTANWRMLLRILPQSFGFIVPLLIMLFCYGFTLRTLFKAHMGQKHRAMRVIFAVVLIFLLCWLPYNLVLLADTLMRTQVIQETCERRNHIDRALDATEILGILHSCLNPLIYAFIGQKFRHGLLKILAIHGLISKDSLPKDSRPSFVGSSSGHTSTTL

[2] = target: T2, C-X-C chemokine receptor type 1 (Homo sapiens, UniProt P25024); experiment: Displacement of [125I]IL8 from CXCR1 expressed in CHO cells; type: cell-based
T2 sequence (P25024 whole entry): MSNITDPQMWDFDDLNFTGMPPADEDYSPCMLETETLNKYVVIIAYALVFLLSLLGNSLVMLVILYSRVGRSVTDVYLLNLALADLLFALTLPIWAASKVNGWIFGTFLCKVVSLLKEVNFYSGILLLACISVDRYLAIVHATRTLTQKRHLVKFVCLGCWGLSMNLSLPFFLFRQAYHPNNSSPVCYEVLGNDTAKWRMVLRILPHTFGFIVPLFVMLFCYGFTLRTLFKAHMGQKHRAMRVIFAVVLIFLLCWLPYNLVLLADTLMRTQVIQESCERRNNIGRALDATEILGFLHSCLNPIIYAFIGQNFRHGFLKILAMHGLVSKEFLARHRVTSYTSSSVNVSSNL

[3] = Dissociation constant, pKa of the compound; type: physicochemical
[4] = target: Interleukin-8 receptors, CXCR1/CXCR2 (Homo sapiens) (UniProt P25025+P25024); experiment: Selectivity for CXCR2 over CXCR1; type: protein assay

IC50 [1]	IC50 [2]	pKa [3]	Ratio IC50 [4]	SMILES
12 nM (antagonist)	411 nM (antagonist)			CN(C)S(=O)(=O)c1c(Cl)ccc(N=C(NC#N)Nc2ccccc2C(F)(F)F)c1O
6 nM (antagonist)	104 nM (antagonist)			CCC(CC)(NS(=O)(=O)c1c(C)ccc(N=C(NC#N)Nc2ccccc2Br)c1O)N1CCOCC1
7 nM (antagonist)	100 nM (antagonist)			CN(C)S(=O)(=O)c1c(C(F)(F)F)ccc(N/C(=N/C#N)Nc2ccccc2Br)c1O
7 nM (antagonist)	187 nM (antagonist)			Cc1ccc(N=C(NC#N)Nc2ccccc2Br)c(O)c1S(=O)(=O)N(C)C
9 nM (antagonist)	1550 nM			CN(C)S(=O)(=O)c1c(Cl)ccc(N=C(NC#N)Nc2ccccc2F)c1O
17 nM (antagonist)	1080 nM			CCC(CC)(NS(=O)(=O)c1c(Cl)ccc(N=C(NC#N)Nc2ccccc2C)c1O)N1C[C@@H](C)O[C@@H](C)C1
9 nM (antagonist)	293 nM (antagonist)			CN(C)S(=O)(=O)c1c(Cl)ccc(N/C(=N/C#N)Nc2ccccc2OCc2ccccc2)c1O
4 nM (antagonist)	192 nM (antagonist)			CN(C)S(=O)(=O)c1c(F)ccc(N/C(=N/C#N)Nc2ccccc2Br)c1O
9 nM (antagonist)	215 nM (antagonist)	6.41		CCC(CC)(NS(=O)(=O)c1c(Cl)ccc(N/C(=N/C#N)Nc2ccccc2Br)c1O)N1C[C@@H](C)O[C@@H](C)C1
12 nM (antagonist)	582 nM (antagonist)	6.48		CCC(CC)(NS(=O)(=O)c1cccc(N/C(=N/C#N)Nc2ccccc2Br)c1O)N1CCOCC1
112 nM (antagonist)	7290 nM			CC(C)c1ccccc1N/C(=N\C#N)Nc1ccc(Cl)c(S(=O)(=O)N(C)C)c1O
5 nM (antagonist)	55 nM (antagonist)			CN(C)S(=O)(=O)c1c(Cl)ccc(N/C(=N/C#N)Nc2ccccc2Br)c1O
15 nM (antagonist)	512 nM (antagonist)			CCc1ccccc1NC(=Nc1ccc(Cl)c(S(=O)(=O)N(C)C)c1O)NC#N
22 nM (antagonist)	188 nM (antagonist)			CCC(CC)(NS(=O)(=O)c1c(Cl)ccc(N/C(=N/C#N)Nc2ccccc2Br)c1O)N1CCC(N)CC1
29 nM (antagonist)	6200 nM			CN(C)S(=O)(=O)c1c(Cl)ccc(N=C(NC#N)Nc2cccc(Cl)c2F)c1O
16 nM (antagonist)	22 nM (antagonist)			CCC(CC)(NS(=O)(=O)c1c(Cl)ccc(N/C(=N/C#N)Nc2ccccc2Br)c1O)N1CCC[C@@H]1C(=O)O
13 nM (antagonist)	752 nM (antagonist)			CN(C)S(=O)(=O)c1c(Cl)ccc(N/C(=N/C#N)Nc2ccccc2-c2ccccc2)c1O
17 nM (antagonist)	378 nM (antagonist)			Cc1ccccc1NC(=Nc1ccc(Cl)c(S(=O)(=O)N(C)C)c1O)NC#N
			> 200	CN(C)S(=O)(=O)c1c(Cl)ccc(N/C(=N/C#N)Nc2cccc(Cl)c2F)c1O
